Measurements published in ChEMBL document CHEMBL1201862, “PubChem BioAssay data set” (2004).
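Values below derive from 48-hour exposures of cells grown in 96-well plates, with endpoints linearly interpolated between the two concentrations bracketing the appropriate inhibition level. GI50 = concentration required for 50% inhibition of growth.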 Active and inactive are the calls of the source. Rule as the data show it: active = GI50 up to about 1.1 µM and inactive = higher.

Assays:
Test in all cases: NCI anticancer screen, dose series, 48 h
Hs-578T = system: Hs-578T
HT-29 = system: HT-29
T47D = system: T47D
SNB-19 = system: SNB-19
UACC-62 = system: UACC-62
TK-10 = system: TK-10
HOP-62 = system: HOP-62
HCT-116 = system: HCT-116
SK-MEL-2 = system: SK-MEL-2
OVCAR-4 = system: OVCAR-4
SK-MEL-5 = system: SK-MEL-5
MDA-MB-231 = system: MDA-MB-231
OVCAR-5 = system: OVCAR-5
IGROV-1 = system: IGROV-1
RXF 393 = system: RXF 393
U-251 = system: U-251
MDA-N = system: MDA-N
SK-MEL-28 = system: SK-MEL-28
OVCAR-8 = system: OVCAR-8
SNB-75 = system: SNB-75

SMILES	GI50 (Hs-578T)	GI50 (HT-29)	GI50 (T47D)	GI50 (SNB-19)	GI50 (UACC-62)	GI50 (TK-10)	GI50 (HOP-62)	GI50 (HCT-116)	GI50 (SK-MEL-2)	GI50 (OVCAR-4)	GI50 (SK-MEL-5)	GI50 (MDA-MB-231)	GI50 (OVCAR-5)	GI50 (IGROV-1)	GI50 (RXF 393)	GI50 (U-251)	GI50 (MDA-N)	GI50 (SK-MEL-28)	GI50 (OVCAR-8)	GI50 (SNB-75)
O=C(C[N+]1(c2ccccc2)CCOCC1)c1ccccc1	> 100 µM (inactive)	> 100 µM (inactive)	> 100 µM (inactive)	> 100 µM (inactive)	> 100 µM (inactive)	> 100 µM (inactive)	> 100 µM (inactive)	> 100 µM (inactive)	> 100 µM (inactive)	> 100 µM (inactive)	> 100 µM (inactive)	> 100 µM (inactive)	> 100 µM (inactive)	> 100 µM (inactive)	> 100 µM (inactive)	> 100 µM (inactive)	> 100 µM (inactive)	0.0445 µM (active)	> 100 µM (inactive)	> 100 µM (inactive)
CCOC(=O)c1c(-c2ccc(Cl)cc2)c(C#N)c(=S)n(C2OC(COC(C)=O)C(OC(C)=O)C(OC(C)=O)C2OC(C)=O)c1-c1ccccc1 (stereo not drawn)	> 100 µM (inactive)	> 100 µM (inactive)	> 100 µM (inactive)	> 100 µM (inactive)	> 100 µM (inactive)	> 100 µM (inactive)	> 100 µM (inactive)	> 100 µM (inactive)	> 100 µM (inactive)	> 100 µM (inactive)	28 µM (inactive)	> 100 µM (inactive)	> 100 µM (inactive)	> 100 µM (inactive)	> 100 µM (inactive)	> 100 µM (inactive)	> 100 µM (inactive)	> 100 µM (inactive)		21.6 µM (inactive)
CN(C)c1nc(NC23CC4CC(CC(C4)C2)C3)nc(N(C)C)n1	16.3 µM (inactive)	26.6 µM (inactive)	7.29 µM (inactive)	14.9 µM (inactive)	25.8 µM (inactive)	35.6 µM (inactive)	15.7 µM (inactive)	20.7 µM (inactive)	20.1 µM (inactive)	> 100 µM (inactive)	11.1 µM (inactive)	9.98 µM (inactive)	10.2 µM (inactive)		3.48 µM (inactive)	9.1 µM (inactive)	8.67 µM (inactive)	22 µM (inactive)	> 53.3 µM (inactive)	7.35 µM (inactive)
CC1(C)NC2C(=O)c3c([nH]c4ccccc34)[C@]3(C)CCC1CC23 (stereo partly drawn)	> 100 µM (inactive)	94.8 µM (inactive)	21.6 µM (inactive)		> 100 µM (inactive)	> 100 µM (inactive)	> 100 µM (inactive)	> 100 µM (inactive)	> 100 µM (inactive)	60.8 µM (inactive)	> 100 µM (inactive)	> 100 µM (inactive)	> 100 µM (inactive)	> 100 µM (inactive)	> 100 µM (inactive)	> 100 µM (inactive)	> 100 µM (inactive)	> 100 µM (inactive)	> 100 µM (inactive)	> 100 µM (inactive)
O=C(NC(=O)c1cc(-c2ccccc2)n[nH]1)c1ccccc1	> 100 µM (inactive)	> 100 µM (inactive)	> 100 µM (inactive)		> 100 µM (inactive)	> 100 µM (inactive)	64.9 µM (inactive)	> 100 µM (inactive)	> 100 µM (inactive)	> 100 µM (inactive)	> 100 µM (inactive)	> 100 µM (inactive)	> 100 µM (inactive)	> 100 µM (inactive)	> 100 µM (inactive)	> 100 µM (inactive)	> 100 µM (inactive)	> 100 µM (inactive)	> 100 µM (inactive)	26.5 µM (inactive)
CC12CCC(C(Br)(Br)C1=O)C2(C)C (stereo not drawn)	0.251 µM (active)	0.228 µM (active)	0.0467 µM (active)	9.62 µM (inactive)	0.682 µM (active)	2.09 µM (inactive)	6 µM (inactive)	0.128 µM (active)		0.333 µM (active)	0.348 µM (active)	0.104 µM (active)	2.28 µM (inactive)	< 0.0422 µM (active)	0.183 µM (active)	< 0.0469 µM (active)	0.196 µM (active)	0.826 µM (active)	1.69 µM (inactive)	0.711 µM (active)
COc1ccc2c(c1)CN1C(=N2)CSC1c1cc([N+](=O)[O-])ccc1Cl (stereo not drawn)	47.1 µM (inactive)	24.7 µM (inactive)	32.4 µM (inactive)	52.6 µM (inactive)	23.2 µM (inactive)	> 100 µM (inactive)	75.2 µM (inactive)	27.2 µM (inactive)	31.1 µM (inactive)	39.1 µM (inactive)	25.6 µM (inactive)	54.5 µM (inactive)	58.5 µM (inactive)	58.7 µM (inactive)	26.2 µM (inactive)	40.6 µM (inactive)	17.8 µM (inactive)		48.8 µM (inactive)	52.1 µM (inactive)
CCSc1cc(=O)n(C)c(=O)n1C	> 100 µM (inactive)	> 100 µM (inactive)	> 100 µM (inactive)	> 100 µM (inactive)	> 100 µM (inactive)	> 100 µM (inactive)	> 100 µM (inactive)	> 100 µM (inactive)	> 100 µM (inactive)	> 100 µM (inactive)	> 100 µM (inactive)	> 100 µM (inactive)	> 100 µM (inactive)		> 100 µM (inactive)	> 100 µM (inactive)	> 100 µM (inactive)	> 100 µM (inactive)	> 100 µM (inactive)	42.7 µM (inactive)
N#Cc1c(Cl)c2cc([N+](=O)[O-])ccc2n2c1nc1ccccc12	7.69 µM (inactive)	4.46 µM (inactive)	1.79 µM (inactive)	13.6 µM (inactive)	12 µM (inactive)	3.81 µM (inactive)	18.2 µM (inactive)	3.17 µM (inactive)	15.5 µM (inactive)	2.15 µM (inactive)	22.6 µM (inactive)	0.492 µM (active)	4.05 µM (inactive)		2.38 µM (inactive)	7.57 µM (inactive)	7.19 µM (inactive)	6.87 µM (inactive)	3.21 µM (inactive)	8.81 µM (inactive)
O=C1CSC2=NC3=C(COC/C3=C\c3ccc(Br)cc3)C(c3ccc(Br)cc3)N12 (stereo not drawn)	> 100 µM (inactive)		53.2 µM (inactive)	> 100 µM (inactive)	> 100 µM (inactive)	97.9 µM (inactive)	> 100 µM (inactive)	40.2 µM (inactive)	> 100 µM (inactive)	> 100 µM (inactive)	96.4 µM (inactive)	> 100 µM (inactive)	> 100 µM (inactive)	98.6 µM (inactive)	37.8 µM (inactive)	66.5 µM (inactive)	43 µM (inactive)		74.6 µM (inactive)	70.5 µM (inactive)
CO[C@@H]1C[C@H]2[C@@H]3CC[C@H]([C@@H](C)COC(C)=O)[C@@]3(C)CC[C@@H]2[C@@]2(C)CC[C@H]3C[C@]312	18.5 µM (inactive)	6.92 µM (inactive)	13.2 µM (inactive)	16.9 µM (inactive)		> 10 µM (inactive)	17.7 µM (inactive)	10.2 µM (inactive)		22 µM (inactive)	3.61 µM (inactive)	11.9 µM (inactive)	11.5 µM (inactive)	15.5 µM (inactive)	17.7 µM (inactive)	13.1 µM (inactive)	16.9 µM (inactive)	17.1 µM (inactive)	12.2 µM (inactive)	17.9 µM (inactive)
